{"source": "patent US20170333591A9", "about": "“ABSORBENT ARTICLE COMPRISING MALODOR REDUCTION COMPOSITIONS” (The Procter & Gamble Company, priority 2014, published 2017)"}
{"assay": "Log of liquid dish neat product liquid-air partition coefficient", "format": "physicochemical", "conditions": "not given"}
{"compound": "C=C1C2CCC(C)(C)C1CCC(OC)C2", "note": "(stereo not shown) [Material 7]", "Comment Code: Log of liquid dish neat product liquid-air partition coefficient": "K (Log of liquid dish neat product liquid-air partition coefficient greater than or equal to 7)"}
{"compound": "CCOC1CCC(C(C)(C)CC)CC1", "note": "(stereo not shown) [Material 12]", "Comment Code: Log of liquid dish neat product liquid-air partition coefficient": "K (Log of liquid dish neat product liquid-air partition coefficient greater than or equal to 7)"}
{"compound": "CC1C(C)(C)C2=C(C3OC(C)(C)OC3CC2)C1(C)C", "note": "(stereo not shown) [Material 23]", "Comment Code: Log of liquid dish neat product liquid-air partition coefficient": "K (Log of liquid dish neat product liquid-air partition coefficient greater than or equal to 7)"}
{"compound": "COc1ccccc1C=CC=O", "note": "[Material 26]", "Comment Code: Log of liquid dish neat product liquid-air partition coefficient": "K (Log of liquid dish neat product liquid-air partition coefficient greater than or equal to 7)"}
{"compound": "CC1=CC(C)C2C(CCC(C)(C)C2O)C1", "note": "(stereo not shown) [Material 39]", "Comment Code: Log of liquid dish neat product liquid-air partition coefficient": "K (Log of liquid dish neat product liquid-air partition coefficient greater than or equal to 7)"}
{"compound": "C=C(C)[C@@H]1CCC2=CC(=O)C[C@@H](C)[C@]2(C)C1", "note": "[Material 48]", "Comment Code: Log of liquid dish neat product liquid-air partition coefficient": "K (Log of liquid dish neat product liquid-air partition coefficient greater than or equal to 7)"}
{"compound": "CC(C)=CCC/C(C)=C\\COC=O", "note": "[Material 59]", "Comment Code: Log of liquid dish neat product liquid-air partition coefficient": "K (Log of liquid dish neat product liquid-air partition coefficient greater than or equal to 7)"}
{"compound": "CCC(C)(O)/C=C/C=C(C)C", "note": "(stereo not shown) [Material 81]", "Comment Code: Log of liquid dish neat product liquid-air partition coefficient": "K (Log of liquid dish neat product liquid-air partition coefficient greater than or equal to 7)"}
{"compound": "CCC(=O)OC(C)c1ccccc1", "note": "(stereo not shown) [Material 96]", "Comment Code: Log of liquid dish neat product liquid-air partition coefficient": "K (Log of liquid dish neat product liquid-air partition coefficient greater than or equal to 7)"}
{"assay": "Log of liquid dish neat product liquid-air partition coefficient", "format": "physicochemical", "conditions": "code letter within the Comment Code cell"}
{"compound": "CC(C)=CCCC(C)=CCC1CCCC1=O", "note": "(racemic) [Material 307]", "Log of liquid dish neat product liquid-air partition coefficient (Comment Code K/L)": "K (Log of liquid dish neat product liquid-air partition coefficient greater than or equal to 7)"}
{"compound": "C=CC(C)CCC=C(C)CCC=O", "note": "(racemic) [Material 358]", "Log of liquid dish neat product liquid-air partition coefficient (Comment Code K/L)": "K (Log of liquid dish neat product liquid-air partition coefficient greater than or equal to 7)"}
{"compound": "CCCCCCC#CC(OC)OC", "note": "[Material 3]", "Log of liquid dish neat product liquid-air partition coefficient (Comment Code K/L)": "K (Log of liquid dish neat product liquid-air partition coefficient greater than or equal to 7)"}
{"compound": "Cc1ccc(C(C)(C)O)cc1", "note": "[Material 4]", "Log of liquid dish neat product liquid-air partition coefficient (Comment Code K/L)": "K (Log of liquid dish neat product liquid-air partition coefficient greater than or equal to 7)"}
{"compound": "C=C1C2CCC(C)(C)C1CCC(OC)C2", "note": "(stereo not shown) [Material 7]", "Log of liquid dish neat product liquid-air partition coefficient (Comment Code K/L)": "K (Log of liquid dish neat product liquid-air partition coefficient greater than or equal to 7)"}
{"compound": "COC1CCCCCCCCCCC1", "note": "[Material 9]", "Log of liquid dish neat product liquid-air partition coefficient (Comment Code K/L)": "K (Log of liquid dish neat product liquid-air partition coefficient greater than or equal to 7)"}
{"compound": "COC1(OC)CCCCCCCCCCC1", "note": "[Material 10]", "Log of liquid dish neat product liquid-air partition coefficient (Comment Code K/L)": "K (Log of liquid dish neat product liquid-air partition coefficient greater than or equal to 7)"}
{"compound": "CCCCCCCCCC/C=C\\C#N", "note": "[Material 11]", "Log of liquid dish neat product liquid-air partition coefficient (Comment Code K/L)": "K (Log of liquid dish neat product liquid-air partition coefficient greater than or equal to 7)"}
{"compound": "CC1(O)CCOC2(CCCCC2)C1", "note": "(stereo not shown) [Material 16]", "Log of liquid dish neat product liquid-air partition coefficient (Comment Code K/L)": "K (Log of liquid dish neat product liquid-air partition coefficient greater than or equal to 7)"}
{"compound": "Cc1ccc2c(c1)OCC(=O)CO2", "note": "[Material 17]", "Log of liquid dish neat product liquid-air partition coefficient (Comment Code K/L)": "K (Log of liquid dish neat product liquid-air partition coefficient greater than or equal to 7)"}
{"compound": "COc1ccccc1-c1ccccc1", "note": "[Material 22]", "Log of liquid dish neat product liquid-air partition coefficient (Comment Code K/L)": "K (Log of liquid dish neat product liquid-air partition coefficient greater than or equal to 7)"}
{"compound": "CC1C(C)(C)C2=C(C3OC(C)(C)OC3CC2)C1(C)C", "note": "(stereo not shown) [Material 23]", "Log of liquid dish neat product liquid-air partition coefficient (Comment Code K/L)": "K (Log of liquid dish neat product liquid-air partition coefficient greater than or equal to 7)"}
{"compound": "CC(C)C1OC2(CCCC2)OCC1(C)C", "note": "(stereo not shown) [Material 25]", "Log of liquid dish neat product liquid-air partition coefficient (Comment Code K/L)": "K (Log of liquid dish neat product liquid-air partition coefficient greater than or equal to 7)"}
{"compound": "CCCCCCCCOC(=O)c1ccco1", "note": "[Material 28]", "Log of liquid dish neat product liquid-air partition coefficient (Comment Code K/L)": "K (Log of liquid dish neat product liquid-air partition coefficient greater than or equal to 7)"}
{"compound": "C=CC(=C)CCCC(C)(C)O", "note": "[Material 34]", "Log of liquid dish neat product liquid-air partition coefficient (Comment Code K/L)": "K (Log of liquid dish neat product liquid-air partition coefficient greater than or equal to 7)"}
{"compound": "C=CC(=C)CCCC(C)(C)OC(C)=O", "note": "[Material 35]", "Log of liquid dish neat product liquid-air partition coefficient (Comment Code K/L)": "K (Log of liquid dish neat product liquid-air partition coefficient greater than or equal to 7)"}
{"compound": "CCCCCCCCCCCCCC=O", "note": "[Material 36]", "Log of liquid dish neat product liquid-air partition coefficient (Comment Code K/L)": "K (Log of liquid dish neat product liquid-air partition coefficient greater than or equal to 7)"}
{"compound": "C=CCc1cc(OC)c2c(c1)OCO2", "note": "[Material 37]", "Log of liquid dish neat product liquid-air partition coefficient (Comment Code K/L)": "K (Log of liquid dish neat product liquid-air partition coefficient greater than or equal to 7)"}
{"compound": "CCCCCCCCCCCCCC#N", "note": "[Material 38]", "Log of liquid dish neat product liquid-air partition coefficient (Comment Code K/L)": "K (Log of liquid dish neat product liquid-air partition coefficient greater than or equal to 7)"}
{"compound": "CC1=CC(C)C2C(CCC(C)(C)C2O)C1", "note": "(stereo not shown) [Material 39]", "Log of liquid dish neat product liquid-air partition coefficient (Comment Code K/L)": "K (Log of liquid dish neat product liquid-air partition coefficient greater than or equal to 7)"}
{"compound": "C=CC(C)=CCCC(C)(C)O", "note": "[Material 42]", "Log of liquid dish neat product liquid-air partition coefficient (Comment Code K/L)": "K (Log of liquid dish neat product liquid-air partition coefficient greater than or equal to 7)"}
{"compound": "C=CC(C)=CCCC(C)(C)O", "note": "[Material 43]", "Log of liquid dish neat product liquid-air partition coefficient (Comment Code K/L)": "K (Log of liquid dish neat product liquid-air partition coefficient greater than or equal to 7)"}
{"compound": "CC(=O)OCCC1=CCC2CC1C2(C)C", "note": "(stereo not shown) [Material 47]", "Log of liquid dish neat product liquid-air partition coefficient (Comment Code K/L)": "K (Log of liquid dish neat product liquid-air partition coefficient greater than or equal to 7)"}
{"compound": "C=C(C)[C@@H]1CCC2=CC(=O)C[C@@H](C)[C@]2(C)C1", "note": "[Material 48]", "Log of liquid dish neat product liquid-air partition coefficient (Comment Code K/L)": "K (Log of liquid dish neat product liquid-air partition coefficient greater than or equal to 7)"}
{"compound": "CC1CC=CCCCCCCCC(=O)OCC1", "note": "(stereo not shown) [Material 52]", "Log of liquid dish neat product liquid-air partition coefficient (Comment Code K/L)": "K (Log of liquid dish neat product liquid-air partition coefficient greater than or equal to 7)"}
{"compound": "CCNC(=O)C1CC(C)CCC1C(C)C", "note": "(stereo not shown) [Material 57]", "Log of liquid dish neat product liquid-air partition coefficient (Comment Code K/L)": "K (Log of liquid dish neat product liquid-air partition coefficient greater than or equal to 7)"}
{"compound": "CC(=O)c1oc2ccccc2c1C", "note": "[Material 61]", "Log of liquid dish neat product liquid-air partition coefficient (Comment Code K/L)": "K (Log of liquid dish neat product liquid-air partition coefficient greater than or equal to 7)"}
{"compound": "C=CC(C)(O)CCC=C(C)CCC=C(C)C", "note": "(stereo not shown) [Material 63]", "Log of liquid dish neat product liquid-air partition coefficient (Comment Code K/L)": "K (Log of liquid dish neat product liquid-air partition coefficient greater than or equal to 7)"}
{"compound": "CC(C)=CCC/C(C)=C\\CO", "note": "[Material 64]", "Log of liquid dish neat product liquid-air partition coefficient (Comment Code K/L)": "K (Log of liquid dish neat product liquid-air partition coefficient greater than or equal to 7)"}
{"compound": "CC1=CC2(C=CC(C)O2)C(C(C)C)CC1", "note": "(stereo not shown) [Material 68]", "Log of liquid dish neat product liquid-air partition coefficient (Comment Code K/L)": "K (Log of liquid dish neat product liquid-air partition coefficient greater than or equal to 7)"}
{"compound": "CC1=CCC(C(C)CC2CCCC2=O)CC1", "note": "(stereo not shown) [Material 69]", "Log of liquid dish neat product liquid-air partition coefficient (Comment Code K/L)": "K (Log of liquid dish neat product liquid-air partition coefficient greater than or equal to 7)"}
{"compound": "CC(=O)/C=C/C1C(C)CCC(C)C1(C)C", "note": "(stereo not shown) [Material 71]", "Log of liquid dish neat product liquid-air partition coefficient (Comment Code K/L)": "K (Log of liquid dish neat product liquid-air partition coefficient greater than or equal to 7)"}
{"compound": "CC(=O)OCC1CC=C(CCC=C(C)C)CC1", "note": "(stereo not shown) [Material 74]", "Log of liquid dish neat product liquid-air partition coefficient (Comment Code K/L)": "K (Log of liquid dish neat product liquid-air partition coefficient greater than or equal to 7)"}
{"compound": "CC1CCCCCCCCCCCCC(=O)C1", "note": "(stereo not shown) [Material 79]", "Log of liquid dish neat product liquid-air partition coefficient (Comment Code K/L)": "K (Log of liquid dish neat product liquid-air partition coefficient greater than or equal to 7)"}
{"compound": "CC1/C=C/CCCCCCCCCCC(=O)C1", "note": "(stereo not shown) [Material 80]", "Log of liquid dish neat product liquid-air partition coefficient (Comment Code K/L)": "K (Log of liquid dish neat product liquid-air partition coefficient greater than or equal to 7)"}
{"compound": "CC(O)C(C)Cc1ccccc1", "note": "(stereo not shown) [Material 82]", "Log of liquid dish neat product liquid-air partition coefficient (Comment Code K/L)": "K (Log of liquid dish neat product liquid-air partition coefficient greater than or equal to 7)"}
{"compound": "CC(C)C1CCC(C(C)O)CC1", "note": "(stereo not shown) [Material 83]", "Log of liquid dish neat product liquid-air partition coefficient (Comment Code K/L)": "K (Log of liquid dish neat product liquid-air partition coefficient greater than or equal to 7)"}
{"compound": "CC(O)CCc1ccccc1", "note": "(stereo not shown) [Material 98]", "Log of liquid dish neat product liquid-air partition coefficient (Comment Code K/L)": "K (Log of liquid dish neat product liquid-air partition coefficient greater than or equal to 7)"}
{"compound": "CCCCCCCCCC(C)C(OC)OC", "note": "(stereo not shown) [Material 101]", "Log of liquid dish neat product liquid-air partition coefficient (Comment Code K/L)": "K (Log of liquid dish neat product liquid-air partition coefficient greater than or equal to 7)"}
{"compound": "CCCCCCCCCC(C)C=O", "note": "(stereo not shown) [Material 103]", "Log of liquid dish neat product liquid-air partition coefficient (Comment Code K/L)": "K (Log of liquid dish neat product liquid-air partition coefficient greater than or equal to 7)"}
{"compound": "CCCCCCCCCCCCCC(=O)OC", "note": "[Material 104]", "Log of liquid dish neat product liquid-air partition coefficient (Comment Code K/L)": "K (Log of liquid dish neat product liquid-air partition coefficient greater than or equal to 7)"}
{"compound": "CCCCCCC(CO)C(C)=O", "note": "(stereo not shown) [Material 106]", "Log of liquid dish neat product liquid-air partition coefficient (Comment Code K/L)": "K (Log of liquid dish neat product liquid-air partition coefficient greater than or equal to 7)"}
{"compound": "CC=Cc1ccc(OC)c(OC)c1", "note": "[Material 108]", "Log of liquid dish neat product liquid-air partition coefficient (Comment Code K/L)": "K (Log of liquid dish neat product liquid-air partition coefficient greater than or equal to 7)"}
{"compound": "CCCCCCCCCCCCCCCC(=O)OC", "note": "[Material 109]", "Log of liquid dish neat product liquid-air partition coefficient (Comment Code K/L)": "K (Log of liquid dish neat product liquid-air partition coefficient greater than or equal to 7)"}
{"compound": "C=CCc1ccc(OC)c(OC)c1", "note": "[Material 110]", "Log of liquid dish neat product liquid-air partition coefficient (Comment Code K/L)": "K (Log of liquid dish neat product liquid-air partition coefficient greater than or equal to 7)"}
{"compound": "CCC=CCC1C(=O)CCC1CC(=O)OC", "note": "(stereo not shown) [Material 112]", "Log of liquid dish neat product liquid-air partition coefficient (Comment Code K/L)": "K (Log of liquid dish neat product liquid-air partition coefficient greater than or equal to 7)"}
